Several values for one entry are separate records, joined by “and”; a condition that tells them apart may be missing. Identical values can stand only once. Toxic doses and inconclusive results are not listed.
System: P388 leukemia ip, CD2F1 mice, survival T/C
Test: NCI In Vivo Anticancer Drug Screen. Data for tumor model P388 Leukemia (intraperitoneal) in CD2F1 (CDF1) mice
Settings: endpoint: median survival time, higher = longer survival
Summary of the method: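 Mice carrying the transplanted tumor received test compound or vehicle. Survival was recorded in each group, and the value is the treated-group measurement divided by that of the vehicle-treated control group.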

[1] = dose: 50.0 mg/kg/injection, schedule: Q01DX005 (ip), vehicle: saline with Tween-80
[2] = dose: 100.0 mg/kg/injection, schedule: Q01DX005 (ip), vehicle: saline with Tween-80
[3] = dose: 200.0 mg/kg/injection, schedule: Q01DX005 (ip), vehicle: saline with Tween-80
[4] = dose: 50.0 mg/kg/injection, schedule: Q01DX009 (ip), vehicle: Klucel (hydroxypropylcellulose) (HPC)
[5] = dose: 100.0 mg/kg/injection, schedule: Q01DX009 (ip), vehicle: Klucel (hydroxypropylcellulose) (HPC)
[6] = dose: 50.0 mg/kg/injection, schedule: Q01DX009 (ip), vehicle: saline
[7] = dose: 100.0 mg/kg/injection, schedule: Q01DX009 (ip), vehicle: saline
[8] = dose: 200.0 mg/kg/injection, schedule: Q01DX009 (ip), vehicle: saline
[9] = dose: 25.0 mg/kg/injection, schedule: Q01DX009 (ip), vehicle: Klucel (hydroxypropylcellulose) (HPC)
[10] = dose: 60.0 mg/kg/injection, schedule: Q01DX005 (ip), vehicle: saline with Tween-80
[11] = dose: 120.0 mg/kg/injection, schedule: Q01DX005 (ip), vehicle: saline with Tween-80
[12] = dose: 240.0 mg/kg/injection, schedule: Q01DX005 (ip), vehicle: saline with Tween-80
[13] = dose: 12.5 mg/kg/injection, schedule: Q01DX009 (ip), vehicle: saline with Tween-80
[14] = dose: 12.5 mg/kg/injection, schedule: Q01DX009 (ip), vehicle: saline
[15] = dose: 25.0 mg/kg/injection, schedule: Q01DX009 (ip), vehicle: saline
[16] = dose: 60.0 mg/kg/injection, schedule: Q01DX005 (ip), vehicle: Klucel (hydroxypropylcellulose) (HPC)
[17] = dose: 120.0 mg/kg/injection, schedule: Q01DX005 (ip), vehicle: Klucel (hydroxypropylcellulose) (HPC)

For `[Co].[NH-]CCC[NH-].[NH-]CCC[NH-].[NH-]CCC[NH-]`, the T/C (dose: 25.0 mg/kg/injection, schedule: Q04DX002 (ip), vehicle: saline) was 99 % of control, the T/C (dose: 50.0 mg/kg/injection, schedule: Q04DX002 (ip), vehicle: saline) was 98 % of control and the T/C (dose: 100.0 mg/kg/injection, schedule: Q04DX002 (ip), vehicle: saline) was 100 % of control.
`CC(=O)OC1(C)CC1(C)C` (centres undefined) was tested, and the T/C [1] was 100 % of control, the T/C [2] was 98 % of control and the T/C [3] was 98 % of control.
`CCSc1ccc2c(cc1=O)C(N)CCc1cc(OC)c(OC)c(OC)c1-2` (centres undefined) was tested, and the T/C [4] was 96 % of control and the T/C [5] was 121 % of control.
In the case of `N/C(=N\O)c1ccc2oc(/C=C/c3cc4cc(/C(N)=N\O)ccc4o3)cc2c1`, the T/C [6] is reported as 100 % of control, the T/C [7] is reported as 97 % of control and the T/C [8] is reported as 91 % of control.
With `COC(=O)/C(=C1/OC(=O)C(c2ccccc2)=C1O)c1ccccc1` the T/C (dose: 6.25 mg/kg/injection, schedule: Q01DX009 (ip), vehicle: Klucel (hydroxypropylcellulose) (HPC)) was 99 % of control, the T/C (dose: 12.5 mg/kg/injection, schedule: Q01DX009 (ip), vehicle: Klucel (hydroxypropylcellulose) (HPC)) was 94 % of control and the T/C [9] was 99 % of control. The T/C [4] was 93 % of control and the T/C [6] was 95 % of control.
For `COC1=CC2CCN3C=C(C#N)C(C#N)CC3C2C=C1OC` (centres undefined), the T/C [1] was 95 % of control, the T/C [2] was 111 % of control and the T/C [3] was 111 % of control.
In the case of `COC1=CCC(CCNC(=O)c2cc3c(cc2[N+](=O)[O-])OCO3)=CC1`, the T/C [10] is reported as 101 % of control, the T/C [11] is reported as 93 % of control and the T/C [12] is reported as 98 % of control.
In the case of `Cn1nc2c(c1-c1cccnc1)CCCc1ccccc1-2`, the T/C (dose: 12.5 mg/kg/injection, schedule: Q01DX009 (ip), vehicle: other) is reported as 113 % of control, the T/C (dose: 25.0 mg/kg/injection, schedule: Q01DX009 (ip), vehicle: other) is reported as 110 % of control and the T/C (dose: 50.0 mg/kg/injection, schedule: Q01DX009 (ip), vehicle: other) is reported as 110 % of control. For the same compound, the T/C (dose: 100.0 mg/kg/injection, schedule: Q01DX009 (ip), vehicle: other) was 99 % of control and the T/C (dose: 200.0 mg/kg/injection, schedule: Q01DX009 (ip), vehicle: other) was 100 % of control.
In the case of `CCCCCCCCCCCCCCCC[N+](C)(C)CCOS(C)(=O)=O`, the T/C [13] is reported as 110 % of control and the T/C (dose: 25.0 mg/kg/injection, schedule: Q01DX009 (ip), vehicle: saline with Tween-80) is reported as 116 % of control.
In the case of `C=CC(=O)N1CN(C(=O)C=C)CN(C(=O)C=C)C1`, the T/C (dose: 6.25 mg/kg/injection, schedule: Q01DX009 (ip), vehicle: saline with Tween-80) is reported as 100 % of control and the T/C [13] is reported as 158 % of control.
`Cc1c(Cl)cccc1NC(=O)Nc1nccs1` was tested, and the T/C [9] was 90 % of control, the T/C [4] was 93 % of control and the T/C [5] was 100 % of control.
`Cc1ccc(NS(=O)(=O)c2ccc(Cl)cc2)cc1Cl` was tested, and the T/C (dose: 100.0 mg/kg/injection, schedule: Q01DX009 (ip), vehicle: saline with Tween-80) was 104 % of control, the T/C (dose: 200.0 mg/kg/injection, schedule: Q01DX009 (ip), vehicle: saline with Tween-80) was 98 % of control and the T/C (dose: 400.0 mg/kg/injection, schedule: Q01DX009 (ip), vehicle: saline with Tween-80) was 100 % of control.
`CC(=O)Nc1ccc(S(=O)(=O)CC(N)=O)cc1` was tested, and the T/C [14] was 105 % of control, the T/C [15] was 104 % of control and the T/C [6] was 107 % of control. For the same compound, the T/C (dose: 50.0 mg/kg/injection, schedule: Q01DX009 (ip), vehicle: suspension in saline) was 97 % of control.
For `c1ccc2c(c1)OC1OC2Oc2ccccc21`, the T/C [10] was 100 % of control, the T/C [11] was 100 % of control and the T/C [12] was 101 % of control.
With `Cc1cnc(N/N=C/c2c(CO)cnc(C)c2O)s1` the T/C (dose: 7.5 mg/kg/injection, schedule: Q01DX005 (ip), vehicle: Klucel (hydroxypropylcellulose) (HPC)) was 99 % of control, the T/C (dose: 15.0 mg/kg/injection, schedule: Q01DX005 (ip), vehicle: Klucel (hydroxypropylcellulose) (HPC)) was 94 % of control and the T/C (dose: 30.0 mg/kg/injection, schedule: Q01DX005 (ip), vehicle: Klucel (hydroxypropylcellulose) (HPC)) was 86 % of control. The T/C [11] was 93 % of control and the T/C [12] was 112 % of control.
With `COc1ccc2c(c1)NC(C(C)C)=NS2(=O)=O` the T/C [16] was 99 % of control, the T/C [17] was 95 % of control and the T/C (dose: 240.0 mg/kg/injection, schedule: Q01DX005 (ip), vehicle: Klucel (hydroxypropylcellulose) (HPC)) was 97 % of control.
In the case of `CCCCOc1cc(C(=O)O)ccc1[N+](=O)[O-]`, the T/C (dose: 50.0 mg/kg/injection, schedule: Q04DX003 (ip), vehicle: saline with Tween-80) is reported as 100 % of control and the T/C (dose: 200.0 mg/kg/injection, schedule: Q04DX003 (ip), vehicle: saline with Tween-80) is reported as 104 % of control.
With `CC(=O)[O-].[NH2-].[NH2-].[NH2-].[NH2-].[NH2-].[O-][Cl+3]([O-])([O-])O.[Ru+8]` the T/C (dose: 3.13 mg/kg/injection, schedule: Q04DX003 (ip), vehicle: saline) was 118 % of control, the T/C (dose: 3.13 mg/kg/injection, schedule: Q04DX003 (ip), vehicle: water) was 99 % of control and the T/C (dose: 6.25 mg/kg/injection, schedule: Q04DX003 (ip), vehicle: saline) was 113 % of control. For the same compound, the T/C (dose: 6.25 mg/kg/injection, schedule: Q04DX003 (ip), vehicle: water) was 118 % of control, the T/C (dose: 12.5 mg/kg/injection, schedule: Q04DX003 (ip), vehicle: saline) was 111 % of control and the T/C (dose: 12.5 mg/kg/injection, schedule: Q04DX003 (ip), vehicle: water) was 120 % of control.
In the case of `OCC1CC(O)CN2CCc3c([nH]c4ccccc34)C2C1` (centres undefined), the T/C (dose: 12.5 mg/kg/injection, schedule: Q01DX005 (ip), vehicle: Klucel (hydroxypropylcellulose) (HPC)) is reported as 99 % of control, the T/C (dose: 25.0 mg/kg/injection, schedule: Q01DX005 (ip), vehicle: Klucel (hydroxypropylcellulose) (HPC)) is reported as 99 % of control and the T/C (dose: 50.0 mg/kg/injection, schedule: Q01DX005 (ip), vehicle: Klucel (hydroxypropylcellulose) (HPC)) is reported as 101 % of control.
`O=C1Cc2ccccc2N1C(=O)c1ccc(F)cc1` was tested, and the T/C (dose: 100.0 mg/kg/injection, schedule: Q01DX001 (ip), vehicle: Klucel (hydroxypropylcellulose) (HPC)) was 102 % of control, the T/C (dose: 200.0 mg/kg/injection, schedule: Q01DX001 (ip), vehicle: Klucel (hydroxypropylcellulose) (HPC)) was 92 % of control and the T/C (dose: 400.0 mg/kg/injection, schedule: Q01DX001 (ip), vehicle: Klucel (hydroxypropylcellulose) (HPC)) was 95 % of control.
In the case of `CC1=CC2N(C=C1)C(c1cccc([N+](=O)[O-])c1)=NON2c1cc(C)ccn1` (centres undefined), the T/C [1] is reported as 91 % of control, the T/C [2] is reported as 87 % of control and 89 % of control and the T/C [3] is reported as 87 % of control and 90 % of control.
In the case of `CCN(CC)CCNC(=O)Cc1cccc2c(=O)cc(-c3ccccc3)oc12`, the T/C [6] is reported as 108 % of control, the T/C [7] is reported as 99 % of control and the T/C [8] is reported as 97 % of control.
`O=C1C2C(C(=O)N1c1ccccc1)C1(c3cccnc3)NC(=O)C2(Cc2cccnc2)c2ccccc21` (centres undefined) was tested, and the T/C (dose: 15.0 mg/kg/injection, schedule: Q01DX005 (ip), vehicle: saline with Tween-80) was 104 % of control, the T/C (dose: 30.0 mg/kg/injection, schedule: Q01DX005 (ip), vehicle: saline with Tween-80) was 100 % of control and 96 % of control and the T/C [10] was 104 % of control and 88 % of control and 91 % of control. The T/C [11] was 88 % of control and the T/C [12] was 86 % of control.
For `Cn1cnc([N+](=O)[O-])c1Sc1ncn[nH]1`, the T/C [14] was 106 % of control, the T/C [15] was 122 % of control and the T/C [7] was 122 % of control. For the same compound, the T/C [8] was 113 % of control.
`O=c1ccc(OS(=O)(=O)c2ccccc2)n[nH]1` was tested, and the T/C [16] was 92 % of control and the T/C [17] was 90 % of control.
`O=Cc1c(-c2ccc(Cl)cc2)nc2n1CCS2` was tested, and the T/C (dose: 100.0 mg/kg/injection, schedule: Q04DX002 (ip), vehicle: Klucel (hydroxypropylcellulose) (HPC)) was 101 % of control and the T/C (dose: 400.0 mg/kg/injection, schedule: Q04DX002 (ip), vehicle: Klucel (hydroxypropylcellulose) (HPC)) was 104 % of control.
`CC1=CC(=O)C(O)C2(C)C1CC1OC(=O)C=C3C(C)(C4OC(=O)CC4CO)CC(O)C2C31C` (centres undefined) was tested, and the T/C (dose: 2.5 mg/kg/injection, schedule: Q01DX009 (ip), vehicle: saline + alcohol) was 92 % of control, the T/C (dose: 5.0 mg/kg/injection, schedule: Q01DX009 (ip), vehicle: saline + alcohol) was 98 % of control and the T/C (dose: 10.0 mg/kg/injection, schedule: Q01DX009 (ip), vehicle: saline + alcohol) was 108 % of control. For the same compound, the T/C (dose: 20.0 mg/kg/injection, schedule: Q01DX009 (ip), vehicle: saline + alcohol) was 101 % of control.

— PubChem BioAssay AID330 (DTP/NCI, 2004)
